The record followed here is US6368803B1, “Detection of nucleic acids by target-catalyzed formation” (Dade Behring Inc., priority 1994, dated 2002).

Where “and” joins values, the source holds several entries; their conditions need not be identical. Identical values can stand only once. {32P} = terminal 32P phosphate radiolabel

Data set [1] deals with single stranded target DNA (M13mp19). The data set is described as follows: Target-catalyzed isothermal 5'-nuclease cleavage of 5'-32P-labeled probe; fold amplification by gel electrophoresis and liquid scintillation. The data set is classed as biochemical. Here is the method:
Probe 2, the unlabeled probe, was designed to anneal to the target DNA 3' to, and contiguous with, the site at which the labeled probe annealed to the target DNA. […] However, good results were obtained in the absence of DATP. The reaction mixture was incubated at 72° C. and accumulation of product, a mononucleotide, namely, 5'^32P-C-OH, was determined by visualization using autoradiography following polyacrylamide gel electrophoresis. The fold of amplification was determined by liquid scintillation spectrometry of excised reaction products. A 10^5 fold amplification was observed. […] The product of this reaction was a dinucleotide, namely, 5'^32P-TC-OH (SEQ ID NO:4), that represented a 10^5-fold amplification. The above reaction protocol was repeated with different temperatures and different concentrations of reagents. All of the reactions, including those mentioned above, were carried out for a period of 3 hours. The following table summarizes the reagents and reaction parameters and the results obtained during the optimization procedure. The reaction protocol described in Example 1 was repeated using the following probes in place of Probe 1 or Probe 3: […]

Data set [2] has as its system Probe 5 hybridized to target DNA (M13mp19). The data set is described as follows: Cleavage of Probe 5 on target DNA using six different DNA polymerases with 5'-nuclease activity. The data set is classed as biochemical. Particulars: 2×10^9 target molecules; Probe 5 1 micromolar; three hours; 72 °C; 20-nucleotide fragment. The procedure:
Probe 2, the unlabeled probe, was designed to anneal to the target DNA 3' to, and contiguous with, the site at which the labeled probe annealed to the target DNA. […] However, good results were obtained in the absence of DATP. The reaction protocol described in Example 1 was repeated using 2×10^9 target molecules and Probe 5 (see Example 2) at a concentration of 1 micromolar in place of Probe 1. The reactions were conducted for three hours at a temperature of 72° C. using one of six different DNA polymerases, namely, AmpliTaq DNA polymerase, […] polymerase (Epicentre), Tfl(TM) DNA polymerase (Epicentre), Ultra Therm(TM) DNA polymerase (Bio/Can Scientific), […] polymerase (Amresco) and Panozyme(TM) DNA polymerase. The product of the reaction was a 20-nucleotide fragment (see Example 2). The following is a summary of the results obtained.

The mark [3] stands for this setting: probe 1 μM, target number 10^9, Taq 7.5 units, 72 °C, increase MgCl2 (7.5 mM), 3 hours.
[4] abbreviates: probe 10 uM, 2×10^8 target molecules, Probe 2 1 uM, 7.5 units AmpliTaq, 72 °C, 7.5 mM MgCl2, 100 uM dATP, 3 hours.
The mark [5] stands for this setting: probe 10 μM, target number 10^8, Taq 7.5 units, 74 °C, increase MgCl2 (7.5 mM), 3 hours.
Where [6] appears, read: probe 10 μM, target number 10^9, Taq 7.5 units, 74 °C, increase MgCl2 (7.5 mM), 3 hours.

Turning to “5′ CGT-GGG-AAC-AAA-CGG-CGG-AT3′ (CGTGGGAACAAACGGCGGAT; DNA, 5' {32P}, backbone and methylation of C not given here) [Probe 1, 20-base oligonucleotide fully complementary to the target DNA with label on the 5′-nucleotide]”, the Fold amplification in data set [1] (probe 1 μM, target number 10^8, Taq 7.5 units, 72 °C, add dATP (100 μM), 3 hours) is 1.0 × 10^4 fold; in data set [1] (probe 1 μM, target number 10^9, Taq 2.5 units, 72 °C, buffer as described, 1.5 mM MgCl2, 3 hours), 1.8 × 10^3 fold; in data set [1] (probe 1 μM, target number 10^9, Taq 7.5 units, 72 °C, add dATP (100 μM), 3 hours), 1.4 × 10^3 fold; in data set [1] (probe 1 μM, target number 10^9, Taq 7.5 units, 72 °C, buffer as described, 1.5 mM MgCl2, 3 hours), 2.0 × 10^3 fold; in data set [1] (setting [3]), 9.7 × 10^3 fold and 9.3 × 10^3 fold; in data set [1] (probe 1 μM, target number 10^10, Taq 2.5 units, 72 °C, buffer as described, 1.5 mM MgCl2, 3 hours) it was 8.8 × 10^2 fold. Moreover, the Fold amplification in data set [1] (setting [4]) is recorded as 10^5 fold; in data set [1] (probe 10 μM, target number 10^8, Taq 7.5 units, 72 °C, add dATP (100 μM), 3 hours) it was 3.6 × 10^4 fold; in data set [1] (setting [5]), 1.1 × 10^5 fold; in data set [1] (probe 10 μM, target number 10^9, Taq 7.5 units, 72 °C, add dATP (100 μM), 3 hours), 1.4 × 10^4 fold; in data set [1] (setting [6]), 3.7 × 10^4 fold.

Consider “5′GAT-TAG-GAT-TAG-GAT-TAG-TCG-TGG-GAA-CAA-ACG-GCG-GAT3′ (GATTAGGATTAGGATTAGTCGTGGGAACAAACGGCGGAT; DNA, 5' {32P}, backbone and methylation of C not given here) [Probe 5, 39 nucleotides with 19 nucleotides at its 5′-end not complementary to the target DNA]”, for which, in data set [1] (Example 1 protocol, probe concentration not given, product intact 20 nucleotide fragment), the Fold amplification is given as 1.5×10^4 fold.

On to “5′TCG-TGG-GAA-CAA-ACG-GCG-GAT3′ (TCGTGGGAACAAACGGCGGAT; DNA, 5' {32P}, backbone and methylation of C not given here) [Probe 3, 21 nucleotides withone base at the 5′-end not complementary to the target DNA]”, for which the Fold amplification in data set [1] (probe 1 μM, target number 10^8, Taq 7.5 units, 72 °C, increase MgCl2 (7.5 mM), 3 hours) is 2.6 × 10^4 fold; in data set [1] (setting [3]), 9.9 × 10^3 fold; in data set [1] (setting [4]), 10^5 fold; in data set [1] (setting [5]), 1.0 × 10^5 fold; in data set [1] (setting [6]), 4.6 × 10^4 fold.

Consider “5′TTA-TTT-CGT-GGG-AAC-AAA-CGG-CGG-AT3′ [Probe 4]”, for which the Fold amplification in data set [1] (Example 1 protocol, probe 1 micromolar, product intact seven nucleotide fragment) is listed as 1.5×10^4 fold.

For the compound `Nc1ncnc2c1ncn2[C@H]1C[C@H](O)[C@@H](COP(=O)(O)OP(=O)(O)OP(=O)(O)O)O1` [dATP, reference compound], the “effect on rate of cleavage by the polymerase” value in data set [1] (100 uM in buffer, AmpliTaq DNA polymerase) was “enhance the rate of cleavage”.

Take “AmpliTaq: Taq DNA polymerase from Perkin-Elmer Corporation with 5′-nuclease activity”: the “Fragment (picomoles)” value in data set [2] is 32 picomoles.
